The results in this text go back to patent publication US20090270459A1, “Flea control agent containing N-Substituted indole derivative” (priority 2001, published 2009).

The subject of one data set is adult cat fleas. The data set is described as follows: Effect on cat flea (1): glass tube residue contact test, knock-down and mortality. In kind it is in vivo, cat flea (Ctenocephalides felis). The arrangement: After 3 hours (KD) knocking-down rate: unit not given here. The procedure:
Each compound was dissolved in acetone to a predetermined concentration and 0.1 ml of the resulting solution was dropped into the bottom of a glass tube with a diameter of 2.8 cm and a height of 12 cm and air-dried. After the air-drying, 10 adult cat fleas were placed in the glass tube and the glass tube was closed with nylon mesh and allowed to stand under conditions of a room temperature of 26° C. and a humidity of 80%. The knocked-down (KD) fleas after 3 hours and the dead and alive after 24 hours and 48 hours were counted, and the knocking-down rate and the mortality were calculated. Fipronil was used as a positive control. In a control experiment, no treatment with an agent was carried out.

For another data set, the system named is std:ddy strain male mice. In words: Toxicity to mouse, administration into the stomach. The data set is classed as in vivo. The procedure: The compound listed in Table 1 or Fipronil was dissolved in olive oil to a predetermined concentration, and the resulting solution was directly administered into the stomachs of std:ddy strain male mice by the use of a probe. The dose was 30 mg/kg or 100 mg/kg. Whether the mice were alive or dead was observed 3 hours, 1 day, 7 days and 14 days after the administration.

Data set [1] relates to cat fleas parasitic on a cat. The data set is described as follows: Effect on cat flea (2): spot-on of 10% liquid drops on flea-infested cat, cumulative fall rate. The data set is classed as in vivo, cat flea (Ctenocephalides felis) on cat. As for the experimental part: Fleas that had fallen from the cat body were counted at intervals of 2 hours until 8 hours after the dropping of the solution, and the cumulative fall rate was calculated. In addition, fleas that had fallen in 24 hours were counted and the cumulative fall rate after 1 day was calculated. Two days after the dropping, the living fleas on the cat body were counted by the use of a flea-removing comb.

The mark [2] stands for this setting: 1 mg/tube, 10 adult cat fleas, 26° C., humidity 80%.
[3] abbreviates: 30 mg/kg into the stomach, in olive oil, male mice.

As for `Cc1c(SC(F)(Cl)Cl)c2ccccc2n1-c1ncc(C(F)(F)F)cc1Cl` [Compound 14, 1-(3-chloro-5-trifluoromethylpyridin-2-yl)-3-(dichlorofluoromethylthio)-2-methylindole], the “After 3 hours (KD) knocking-down rate” value in the data set with adult cat fleas (0.001 mg/tube), in the data set with adult cat fleas (0.01 mg/tube), in the data set with adult cat fleas (0.1 mg/tube) and in the data set on adult cat fleas (setting [2]) was 0 throughout. Further, the “After 1 day (mortality)” value turned out to be 20% in the data set on adult cat fleas (0.001 mg/tube), 50% with adult cat fleas (0.01 mg/tube), 100% in the data set with adult cat fleas (0.1 mg/tube) and 100% in the data set with adult cat fleas (1 mg/tube). In addition, the “After 2 days (mortality)” value with adult cat fleas (0.001 mg/tube) is on record as 30%; with adult cat fleas (0.01 mg/tube), 100%; with adult cat fleas (0.1 mg/tube), 100%; with adult cat fleas (1 mg/tube) it was 100%. The “Cumulative mortality After 1 day” value in the data set on std:ddy strain male mice (30 mg/kg) and in the data set on std:ddy strain male mice (100 mg/kg) was 0/5 throughout. The “Cumulative mortality After 7 days” value in the data set on std:ddy strain male mice (30 mg/kg) and with std:ddy strain male mice (100 mg/kg) was 0/5 in each case. The “Cumulative mortality After 14 days” value with std:ddy strain male mice (30 mg/kg) and with std:ddy strain male mice (100 mg/kg) was 0/5 throughout. Besides, the “Cumulative mortality After 3 hours” value in the data set on std:ddy strain male mice (setting [3]) and in the data set on std:ddy strain male mice (100 mg/kg) was 0/5 each time.

Consider `FC(Cl)(Cl)Sc1cn(-c2c(Cl)cc(C(F)(F)F)cc2Cl)c2ccc(Cl)cc12` [Compound 19], for which the “After 3 hours (KD) knocking-down rate” value with adult cat fleas (0.01 mg/tube), in the data set with adult cat fleas (0.1 mg/tube) and in the data set on adult cat fleas (setting [2]) was 0 each time. Further, the “After 1 day (mortality)” value in the data set with adult cat fleas (0.01 mg/tube) amounted to 30%; with adult cat fleas (0.1 mg/tube) it was 60%; in the data set on adult cat fleas (1 mg/tube), 100%. Moreover, the “After 2 days (mortality)” value is given as 90% in the data set with adult cat fleas (0.01 mg/tube), 100% with adult cat fleas (0.1 mg/tube) and 100% in the data set on adult cat fleas (1 mg/tube).

For the compound `Fc1ccc2c(c1)c(SC(F)(Cl)Cl)cn2-c1ncc(C(F)(F)F)cc1Cl` [Compound 2, 1-(3-chloro-5-trifluoromethylpyridin-2-yl)-3-(dichlorofluoromethylthio)-5-fluoroindole], the “After 3 hours (KD) knocking-down rate” value in the data set on adult cat fleas (0.001 mg/tube), in the data set on adult cat fleas (0.01 mg/tube), in the data set with adult cat fleas (0.1 mg/tube) and in the data set with adult cat fleas (setting [2]) was 0 in each case. Moreover, the “After 1 day (mortality)” value with adult cat fleas (0.001 mg/tube) is recorded as 0%; with adult cat fleas (0.01 mg/tube), 10%; with adult cat fleas (0.1 mg/tube), 100%; with adult cat fleas (1 mg/tube), 100%. Further, the “After 2 days (mortality)” value with adult cat fleas (0.001 mg/tube) came to 0%; in the data set on adult cat fleas (0.01 mg/tube), 50%; in the data set on adult cat fleas (0.1 mg/tube) it was 100%; in the data set on adult cat fleas (1 mg/tube), 100%.

For the compound `N#Cc1nn(-c2c(Cl)cc(C(F)(F)F)cc2Cl)c(N)c1[S+]([O-])C(F)(F)F` (stereo not drawn) [Fipronil, 5-amino-1-(2,6-dichloro-4-(trifluoromethyl)phenyl)-4-((trifluoromethyl)sulfinyl)-1H-pyrazole-3-carbonitrile, reference compound], the “Cumulative fall rate (%) After 4 hours” value in data set [1] (0.5 ml of 10% solution spot-on, after 4 hours) was determined as 3%. Besides, the “Cumulative fall rate (%) After 6 hours” value in data set [1] (0.5 ml of 10% solution spot-on, after 6 hours) is reported as 20%. Moreover, the “Cumulative fall rate (%) After 8 hours” value in data set [1] (0.5 ml of 10% solution spot-on, after 8 hours) was determined as 27%. For the same compound, in data set [1] (0.5 ml of 10% solution spot-on, after 24 hours), the “Cumulative fall rate (%) After 24 hours” value stood at 90%. The “Dead fleas found on the body of the cat” value in data set [1] (24 hours after the dropping, 0.5 ml of 10% solution) was “three”. Besides, the “Cumulative fall rate (%) After 2 hours” value in data set [1] (cat with 30 cat fleas, 0.5 ml of 10% solution spot-on, after 2 hours) was 0%. Besides, the “After 3 hours (KD) knocking-down rate” value in the data set on adult cat fleas (0.001 mg/tube), in the data set with adult cat fleas (0.01 mg/tube), with adult cat fleas (0.1 mg/tube) and in the data set with adult cat fleas (setting [2]) was 0 each time. For the same compound, the “After 1 day (mortality)” value with adult cat fleas (0.001 mg/tube) came to 20%; in the data set with adult cat fleas (0.01 mg/tube) it was 20%; in the data set on adult cat fleas (0.1 mg/tube), 100%; in the data set with adult cat fleas (1 mg/tube), 100%. Besides, the “After 2 days (mortality)” value with adult cat fleas (0.001 mg/tube) is 20%; with adult cat fleas (0.01 mg/tube), 90%; in the data set on adult cat fleas (0.1 mg/tube), 100%; in the data set on adult cat fleas (1 mg/tube) it was 100%. For the same compound, the “Cumulative mortality After 1 day” value with std:ddy strain male mice (30 mg/kg) was 1/5; in the data set with std:ddy strain male mice (100 mg/kg), 5/5. For the same compound, the entries for the “Cumulative mortality After 7 days” value with std:ddy strain male mice (30 mg/kg) and with std:ddy strain male mice (100 mg/kg) were 1/5 and 5/5, respectively. The “Cumulative mortality After 14 days” value with std:ddy strain male mice (30 mg/kg) is 1/5; with std:ddy strain male mice (100 mg/kg), 5/5. The “Cumulative mortality After 3 hours” value is 0/5 with std:ddy strain male mice (setting [3]) and 1/5 in the data set on std:ddy strain male mice (100 mg/kg).

Regarding `O=S(=O)(c1cn(-c2c(Cl)cc(C(F)(F)F)cc2Cl)c2ccccc12)C(F)(Cl)Cl` [Compound 32], the “After 3 hours (KD) knocking-down rate” value in the data set with adult cat fleas (0.001 mg/tube), in the data set with adult cat fleas (0.01 mg/tube), in the data set on adult cat fleas (0.1 mg/tube) and with adult cat fleas (setting [2]) was 0 throughout. In addition, the “After 1 day (mortality)” value in the data set on adult cat fleas (0.001 mg/tube) turned out to be 0%; in the data set with adult cat fleas (0.01 mg/tube), 0%; in the data set with adult cat fleas (0.1 mg/tube), 30%; in the data set with adult cat fleas (1 mg/tube) it was 100%. Besides, the “After 2 days (mortality)” value was 0% in the data set on adult cat fleas (0.001 mg/tube), 20% in the data set with adult cat fleas (0.01 mg/tube), 100% in the data set with adult cat fleas (0.1 mg/tube) and 100% in the data set with adult cat fleas (1 mg/tube).

As to `FC(Cl)(Cl)Sc1cn(-c2ncc(C(F)(F)F)cc2Cl)c2ccccc12` [Compound 1, 1-(3-chloro-5-trifluoromethylpyridin-2-yl)-3-(dichlorofluoromethyl-thio)indole], the “After 3 hours (KD) knocking-down rate” value was 0 with adult cat fleas (0.001 mg/tube), 0 with adult cat fleas (0.01 mg/tube), 0 with adult cat fleas (0.1 mg/tube) and 80 with adult cat fleas (setting [2]). Also, the “After 1 day (mortality)” value turned out to be 10% with adult cat fleas (0.001 mg/tube), 70% in the data set on adult cat fleas (0.01 mg/tube), 100% with adult cat fleas (0.1 mg/tube) and 100% in the data set with adult cat fleas (1 mg/tube). Also, the “After 2 days (mortality)” value was 40% in the data set on adult cat fleas (0.001 mg/tube), 100% with adult cat fleas (0.01 mg/tube), 100% in the data set on adult cat fleas (0.1 mg/tube) and 100% in the data set on adult cat fleas (1 mg/tube).

Regarding `FC(F)(F)Sc1cn(-c2c(Cl)cc(C(F)(F)F)cc2Cl)c2ccccc12` [Compound 25, 1-(2,6-dichloro-4-trifluoromethylphenyl)-3-(trifluoromethylthio)indole], the “After 3 hours (KD) knocking-down rate” value in the data set on adult cat fleas (0.001 mg/tube) was found to be 0; with adult cat fleas (0.01 mg/tube) it was 0; with adult cat fleas (0.1 mg/tube), 10; with adult cat fleas (setting [2]), 100. Also, the “After 1 day (mortality)” value in the data set on adult cat fleas (0.001 mg/tube) amounted to 0%; in the data set with adult cat fleas (0.01 mg/tube) it was 70%; with adult cat fleas (0.1 mg/tube) it was 100%; in the data set on adult cat fleas (1 mg/tube) it was 90%. Besides, the “After 2 days (mortality)” value in the data set with adult cat fleas (0.001 mg/tube) came to 30%; in the data set with adult cat fleas (0.01 mg/tube), 100%; with adult cat fleas (0.1 mg/tube), 100%; in the data set with adult cat fleas (1 mg/tube), 100%. Besides, the “Cumulative mortality After 1 day” value in the data set with std:ddy strain male mice (30 mg/kg) and in the data set with std:ddy strain male mice (100 mg/kg) was 0/5 in each case. Also, the “Cumulative mortality After 7 days” value with std:ddy strain male mice (30 mg/kg) and in the data set on std:ddy strain male mice (100 mg/kg) was 0/5 in each case. For the same compound, the “Cumulative mortality After 14 days” value with std:ddy strain male mice (30 mg/kg) and in the data set with std:ddy strain male mice (100 mg/kg) was 0/5 throughout. Further, the “Cumulative mortality After 3 hours” value in the data set on std:ddy strain male mice (setting [3]) and in the data set on std:ddy strain male mice (100 mg/kg) was 0/5 throughout.

As for `FC(Cl)(Cl)Sc1cn(-c2ncc(C(F)(F)F)cc2Cl)c2ccc(Cl)cc12` [Compound 3], the “After 3 hours (KD) knocking-down rate” value in the data set on adult cat fleas (0.001 mg/tube), in the data set on adult cat fleas (0.01 mg/tube), in the data set with adult cat fleas (0.1 mg/tube) and with adult cat fleas (setting [2]) was 0 throughout. For the same compound, the “After 1 day (mortality)” value is reported as 20% with adult cat fleas (0.001 mg/tube), 10% in the data set with adult cat fleas (0.01 mg/tube), 40% in the data set with adult cat fleas (0.1 mg/tube) and 50% with adult cat fleas (1 mg/tube). For the same compound, the “After 2 days (mortality)” value came out at 20% in the data set with adult cat fleas (0.001 mg/tube), 20% with adult cat fleas (0.01 mg/tube), 70% with adult cat fleas (0.1 mg/tube) and 90% in the data set with adult cat fleas (1 mg/tube).
